The test system of one data set is Cancer Cell. Description: Cancer cell growth inhibition. Further details: key: Y is an indication that activity was found. The format is cell-based. As for the experimental part:
BrDU incorporation and cell proliferation assays—Cell proliferation rates were measured by using the CellTitre™ 96 AqueousOne™ kit (Promega™) and bromodeoxyuridine (BrdU) assay kit (Millipore™) according to the manufacturer's protocol, with minor modifications as we have previously described by Li H. et al.^19

The next data set concerns the target T1, Topoisomerase II (Homo sapiens, UniProt P11388).
T1 construct: purchased TopoGENE (TopoGEN) TG2000H / kit TG1001
Description: Topoisomerase II inhibition screening (supercoiled plasmid relaxation, then kDNA decatenation). The format is biochemical. Details: key to TOP2 Inhib.: Y is an indication that activity was found. As to conditions: for relative activity among compounds tested in the screening round: medium throughput relaxation and kDNA decatenation assays. As for the experimental part:
In vitro Topo II activity assays—K-DNA decatenation assays were performed using the human Topo II assay kit (TG1001, TopoGENE™) with Etoposide and ICRF193 as poison and catalytic inhibitors respectively. DNA relaxation assays were performed by incubating the supercoiled pHOT™ plasmid with human Topo IIα (TG2000H™, TopoGENE™) at 37 degrees for one hour. Reactions were stopped by adding 10% SDS, EDTA and proteinase K. Plasmid DNAs were separated on DNA agarose gel and stained with ethidium bromide for visualization.
Medium Throughput Screening Assays A supercoiled plasmid relaxation assay was used as a first, course filter to determine candidate small molecules. Small molecule candidates that were sufficiently active in the first round screening were then subject to the kDNA decatenation assay.
Second Round Screening With the discovered active compounds 19 and 23, a new screen was initiated to look for similar molecules. For this, the shape similarity screening program ROCS™^10 was used The compounds chosen for the ROCS™ search was based on the docking conformation of Compound 23. The ZINC-15 library filtered down to 6 million molecules described previously was used for this screening. The top 62 molecules were hand-picked based on their ROCS™ similarity as well as their docking scores. These molecules were ordered and tested with the same medium throughput assays previously described. A large enrichment in the proportion of active molecules was observed, of close to 10-fold relative to the first round, validating the virtual screening pipeline.

Another data set concerns K562 cells. Description: γH2AX Western blot (DNA damage in cells). The format is cell-based. The settings on record: 10-20 μM, 4 hours. As for the experimental part:
Cytotoxicity was evaluated by measuring LDH levels from cell culture media; (b) K562 cells were treated with either vehicle or 10-20 μM of Top60, Etoposide and ICRF187 for 4 hours. Whole cell lyses were collected to measure γH2AX levels with vinculin as the loading control; (c) K562 cells were treated with 0, 1, 5, 10, 15 and 20 μM of Top60, 20 μM Etoposide or 20 uM ICRF187 for 48 hours. Cell proliferation rates were determined by MTS assays; and (d) K562 cells were treated with 20 μM of Top60, Etoposide or ICRF187 for 0, 24, 48 and 72 hours. Cell proliferation rates were measured by MTS assays. All results were collected from three independent experiments.
Top60 is a catalytic inhibitor of Topo II To verify that our lead Compound 60(Top60), the formation of ds DNA breaks was assayed both in and outside of cells. To assess whether Top60 causes double stranded DNA breaks outside cells, supercoiled plasmid was incubated with and without Top60 in the presence of Topo II (FIG. 1d). […] Furthermore, H2AXγ protein expression was assessed by Western blot to determine if the lead compound could cause DNA damage in cells, and compared to Etoposide as a control (FIG. 3b). […] To determine if Top60 was capable of intercalating DNA, it was incubated with relaxed plasmid at increasing concentrations and compared with m-AMSA, a known intercalator. […]
For orientation: A western blot detects proteins with antibodies after separation by electrophoresis.

T1 sequence (P11388 whole entry): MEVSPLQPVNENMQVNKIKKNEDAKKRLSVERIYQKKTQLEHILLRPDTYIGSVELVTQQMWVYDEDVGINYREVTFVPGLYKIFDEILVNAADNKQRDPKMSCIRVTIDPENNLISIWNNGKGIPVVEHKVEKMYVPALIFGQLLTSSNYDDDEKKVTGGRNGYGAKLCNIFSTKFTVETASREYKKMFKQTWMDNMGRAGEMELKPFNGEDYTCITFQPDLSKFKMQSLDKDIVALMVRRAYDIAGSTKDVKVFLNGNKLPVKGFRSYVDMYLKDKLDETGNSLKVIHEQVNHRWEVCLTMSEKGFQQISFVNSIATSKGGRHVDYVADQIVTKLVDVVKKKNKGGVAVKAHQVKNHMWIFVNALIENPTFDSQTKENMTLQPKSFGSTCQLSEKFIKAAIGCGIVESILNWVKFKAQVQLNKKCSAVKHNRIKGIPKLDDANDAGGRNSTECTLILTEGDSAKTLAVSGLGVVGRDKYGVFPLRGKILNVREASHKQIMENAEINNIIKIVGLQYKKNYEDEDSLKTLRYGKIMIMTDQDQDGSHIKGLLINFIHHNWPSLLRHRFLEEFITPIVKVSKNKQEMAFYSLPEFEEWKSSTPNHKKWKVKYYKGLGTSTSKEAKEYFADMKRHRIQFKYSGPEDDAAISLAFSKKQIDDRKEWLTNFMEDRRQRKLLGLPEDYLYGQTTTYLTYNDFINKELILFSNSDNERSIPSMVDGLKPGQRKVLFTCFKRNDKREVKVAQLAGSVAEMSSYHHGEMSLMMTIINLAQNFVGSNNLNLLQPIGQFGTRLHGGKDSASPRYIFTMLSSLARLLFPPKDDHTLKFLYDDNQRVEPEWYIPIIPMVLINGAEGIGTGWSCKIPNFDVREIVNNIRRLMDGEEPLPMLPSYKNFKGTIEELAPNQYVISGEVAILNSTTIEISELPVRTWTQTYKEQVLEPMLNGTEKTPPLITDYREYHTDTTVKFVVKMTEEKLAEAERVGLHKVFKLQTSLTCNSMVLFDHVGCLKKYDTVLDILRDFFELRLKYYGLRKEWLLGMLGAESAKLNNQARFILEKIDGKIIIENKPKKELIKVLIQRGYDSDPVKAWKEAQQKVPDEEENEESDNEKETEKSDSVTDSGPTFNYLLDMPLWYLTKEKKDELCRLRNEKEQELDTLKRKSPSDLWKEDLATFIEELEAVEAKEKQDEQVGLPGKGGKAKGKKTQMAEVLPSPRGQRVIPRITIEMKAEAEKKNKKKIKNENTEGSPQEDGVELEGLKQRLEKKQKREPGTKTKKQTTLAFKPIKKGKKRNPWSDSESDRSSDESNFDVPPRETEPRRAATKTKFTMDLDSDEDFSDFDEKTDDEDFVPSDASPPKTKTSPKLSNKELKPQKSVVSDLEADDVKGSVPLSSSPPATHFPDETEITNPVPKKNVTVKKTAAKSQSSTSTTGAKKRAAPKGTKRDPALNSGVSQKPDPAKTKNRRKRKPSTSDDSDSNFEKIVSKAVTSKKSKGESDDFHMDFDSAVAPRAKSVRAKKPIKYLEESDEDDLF

As to `CCC(=O)Nc1ccc(NC(=O)c2ccc[nH]c2=S)cc1` [Compound 64], the “Cancer Cell Growth Inhib.” value in the data set with Cancer Cell is listed as “Y”. Besides, on Topoisomerase II, the “TOP2 Inhib.” value is recorded as “Y”.
`O=C(Nc1ccc(CN2CCCC2)cc1)c1ccc[nH]c1=S` [Compound 62]: the “Cancer Cell Growth Inhib.” value with Cancer Cell was “Y”. Moreover, the “TOP2 Inhib.” value on Topoisomerase II was “Y”.
Consider `N#Cc1ccc(Oc2ccc(NC(=O)c3ccc[nH]c3=S)cc2)cc1` [Compound 65], for which, in the data set with Cancer Cell, the “Cancer Cell Growth Inhib.” value is reported as “Y”. For the same molecule, the “TOP2 Inhib.” value on Topoisomerase II was “Y”.
In the case of `O=C(Nc1ccc(N2CCN(C(=O)c3ccoc3)CC2)cc1)c1ccc(Cl)c(Cl)c1` [Compound 88], the “Cancer Cell Growth Inhib.” value with Cancer Cell is given as “Y”. Moreover, the “TOP2 Inhib.” value on Topoisomerase II is recorded as “Y”.
On to `O=C(Nc1ccc(-n2cc(Br)cn2)nc1)c1ccc2ncsc2c1` [Compound 89], for which, in the data set with Cancer Cell, the “Cancer Cell Growth Inhib.” value is reported as “Y”. Moreover, the “TOP2 Inhib.” value on Topoisomerase II is reported as “Y”.
For the molecule `CC(C)CC(=O)Nc1ccc(NC(=O)c2ccc[nH]c2=S)cc1` [Compound 23], in the data set with Cancer Cell, the “Cancer Cell Growth Inhib.” value is reported as “Y”. Moreover, on Topoisomerase II, the “TOP2 Inhib.” value was “Y” and the “relative activity among compounds tested in the screening round” value is listed as “most active”.
`O=C(Nc1ccc(NC2CCCC2)cc1)c1ccc[nH]c1=S` [Compound 70]: in the data set on Cancer Cell, the “Cancer Cell Growth Inhib.” value is “Y”. For the same molecule, the “TOP2 Inhib.” value on Topoisomerase II is “Y”.
`O=C(Nc1ccc(NC(=O)N2CCCCCC2)cc1)c1ccc[nH]c1=S` [Compound 75]: the “Cancer Cell Growth Inhib.” value with Cancer Cell was “Y”. In addition, the “TOP2 Inhib.” value at Topoisomerase II is recorded as “Y”.
Take `CC(Nc1ccc(NC(=O)c2ccc[nH]c2=S)cc1Cl)c1ccccc1` (centres unmarked) [Compound 77]: the “Cancer Cell Growth Inhib.” value in the data set on Cancer Cell is reported as “Y”. Further, the “TOP2 Inhib.” value at Topoisomerase II is “Y”.
Regarding `O=C(Nc1ccc(N2CCc3sccc3C2)nc1)c1cccnc1S` [Compound 110], in the data set on Cancer Cell, the “Cancer Cell Growth Inhib.” value is given as “Y”. For the same molecule, the “TOP2 Inhib.” value at Topoisomerase II is recorded as “Y”.
Take `Cc1ccc(C(=O)Nc2ccc(OC3CCCCC3O)cc2)c(=S)[nH]1` (centres unmarked) [Compound 90]: the “Cancer Cell Growth Inhib.” value in the data set on Cancer Cell is on record as “Y”. Moreover, at Topoisomerase II, the “TOP2 Inhib.” value is “Y”.
Consider `CCC(=O)Nc1ccc(Nc2ccc(NC(=O)c3cccnc3S)cc2)cc1` [Compound 113], for which, in the data set on Cancer Cell, the “Cancer Cell Growth Inhib.” value was “Y”. For the same molecule, on Topoisomerase II, the “TOP2 Inhib.” value is “Y”.
For `COc1ccc(Sc2ccc(NC(=O)c3ccc[nH]c3=S)cc2)cc1` [Compound 68], in the data set with Cancer Cell, the “Cancer Cell Growth Inhib.” value is reported as “Y”. Besides, the “TOP2 Inhib.” value on Topoisomerase II is recorded as “Y”.
As to `CC(C(C)N1CC(=O)NC(=O)C1)N1CC(=O)NC(=O)C1` (centres unmarked) [ICRF, 4-[2-(3,5-Dioxo-1-piperazinyl)-1-methylpropyl]piperazine-2,6-dione, reference compound], in the data set on K562 cells, the “DNA damage in cells by H2AXγ protein level” value is on record as “do not cause DNA damage”.
Regarding `CC(NC(=O)OC(C)(C)C)c1ccc(NC(=O)c2ccc[nH]c2=S)cc1` (centres unmarked) [Compound 67], in the data set with Cancer Cell, the “Cancer Cell Growth Inhib.” value is on record as “Y”. Moreover, at Topoisomerase II, the “TOP2 Inhib.” value was “Y”.
For the molecule `CSc1ccccc1C(=O)Nc1ccc(NC(=O)CC(C)C)cc1` [Compound 72], the “Cancer Cell Growth Inhib.” value in the data set on Cancer Cell was “Y”. At Topoisomerase II, the “TOP2 Inhib.” value was “Y”.
As for `CC(Nc1ccc(NC(=O)c2ccc[nH]c2=S)cc1)c1ccccc1` (centres unmarked) [Compound 115], the “Cancer Cell Growth Inhib.” value in the data set with Cancer Cell is reported as “Y”. Further, on Topoisomerase II, the “TOP2 Inhib.” value is reported as “Y”.
In the case of `COc1cccc(Oc2ccc(NC(=O)c3ccc[nH]c3=S)cc2)c1` [Compound 63], the “Cancer Cell Growth Inhib.” value in the data set on Cancer Cell is listed as “Y”. Further, the “TOP2 Inhib.” value at Topoisomerase II is “Y”.
For `NC1=C(c2nc3ccccc3s2)C(=O)CN1/N=C\c1ccc(O)c(O)c1` [Compound 19], in the data set on Cancer Cell, the “Cancer Cell Growth Inhib.” value is “Y”. Further, at Topoisomerase II, the “TOP2 Inhib.” value was “Y” and the “relative activity among compounds tested in the screening round” value was “most active”.
For `COc1ccc(Nc2ccc(NC(=O)c3cccnc3S)cc2)cc1` [Compound 112], the “Cancer Cell Growth Inhib.” value in the data set with Cancer Cell is on record as “Y”. Also, the “TOP2 Inhib.” value at Topoisomerase II is recorded as “Y”.

For the origin of these results see US20210379077A1, “TOPOISOMERASE II CATALYTIC INHIBITOR COMPOUND THERAPEUTICS FOR CANCER TREATMENT, METHODS AND USES” (The University of British Columbia, priority 2018, published 2021).
